Results from patent US10227331B2 (priority 2015, dated 2019).

Assays:
IMP-1 = IMP-1 (Serratia marcescens, UniProt P52699); assay: biochemical; format: biochemical; settings: CCF2-FA substrate, 2 hours at 25° C; read-out: IMP-1 IC50
Summary of the method: (§1)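 Enzyme activity was measured by fluorescence using CCF2-FA, a cephalosporin-linked 7-hydroxycoumarin/fluorescein substrate, with inhibitor, metallo-β-lactamase and substrate incubated together for 2 hours at 25° C. IC50 came from a 4-parameter fit of inhibition versus log inhibitor concentration.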

NDM-1 = NDM-1 (Klebsiella pneumoniae, UniProt C7C422); assay: biochemical; format: biochemical; settings: CCF2-FA substrate, 2 hours at 25° C; read-out: NDM-1 IC50
Chain of NDM-1 (C7C422 whole entry, looked up, species assumed): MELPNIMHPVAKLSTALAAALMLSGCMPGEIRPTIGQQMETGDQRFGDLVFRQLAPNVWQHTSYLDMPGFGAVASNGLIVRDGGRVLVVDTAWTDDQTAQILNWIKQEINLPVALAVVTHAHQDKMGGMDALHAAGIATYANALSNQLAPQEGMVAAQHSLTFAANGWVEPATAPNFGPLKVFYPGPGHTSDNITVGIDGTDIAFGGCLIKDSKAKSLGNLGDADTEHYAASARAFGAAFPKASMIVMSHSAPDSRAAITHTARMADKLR
Summary of the method: as §1

VIM-1 = VIM-1 (Pseudomonas aeruginosa (strain ATCC 15692 / DSM 22644 / CIP 104116 / JCM 14847 / LMG 12228 / 1C / PRS 101 / PAO1), UniProt A0A0F7KYQ8); assay: biochemical; settings: CCF2-FA substrate, 2 hours at 25° C
Summary of the method: as §1

[1] = tested on: Escherichia coli expressing NDM-1 (CLB30005, CLB30016); format: cell-based; settings: with imipenem 1 μg/ml; 95% inhibition of bacterial growth
Summary of the method: (§2)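 Restoration of imipenem susceptibility (1 μg/ml imipenem) was judged by absorbance after 22–24 h at 35° C. Test compound was added to bacteria suspended 1:100 in 1.1× CAMHB from overnight blood-agar cultures.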

[2] = tested on: Klebsiella pneumoniae expressing VIM-1 (IHMA599644); format: cell-based; settings: with imipenem 1 μg/ml; 95% inhibition of bacterial growth
Summary of the method: as §2

[3] = tested on: Serratia marcescens expressing IMP-1 (CL5741); format: cell-based; settings: with imipenem 1 μg/ml; 95% inhibition of bacterial growth
Summary of the method: as §2

[4] = tested on: P. aeruginosa expressing IMP-1, efflux+ (MB9798); format: cell-based, Pseudomonas aeruginosa; settings: for P. aeruginosa expressing IMP-1, efflux+ (MB9798) MITC95: imipenem at 2 μg/mL, in the presence of a class A, C, D serine β-lactamase inhibitor closely related to relebactam; for Efflux ratio: ratio MITC95 PA_9798/MITC95 PA_9799
Excerpt: (§3) The strain background is Pseudomonas aeruginosa PAO1.

[5] = tested on: P. aeruginosa expressing IMP-1, efflux− (MB9799); assay: Efflux: concentration of MBL inhibitor which restores susceptibility to imipenem; format: cell-based, Pseudomonas aeruginosa; settings: imipenem at 2 μg/mL, in the presence of a class A, C, D serine β-lactamase inhibitor closely related to relebactam
Excerpt: as §3

Chain of IMP-1 (P52699 whole entry, looked up, species assumed): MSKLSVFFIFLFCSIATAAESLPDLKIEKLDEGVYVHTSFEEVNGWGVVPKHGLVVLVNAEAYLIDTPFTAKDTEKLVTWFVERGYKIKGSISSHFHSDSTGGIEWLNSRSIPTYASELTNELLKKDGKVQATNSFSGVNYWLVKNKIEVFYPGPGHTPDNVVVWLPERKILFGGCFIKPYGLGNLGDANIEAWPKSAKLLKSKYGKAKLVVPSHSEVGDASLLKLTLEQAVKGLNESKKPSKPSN

| SMILES | IC50 (IMP-1) | IC50 (NDM-1) | IC50 (VIM-1) | Escherichia coli expressing NDM-1 (CLB30016) MITC95 [1] | Klebsiella pneumoniae expressing VIM-1 (IHMA599644) MITC95 [2] | Serratia marcescens expressing IMP-1 (CL5741) MITC95 [3] | P. aeruginosa expressing IMP-1, efflux+ (MB9798) MITC95 [4] | Efflux ratio [4] | P. aeruginosa expressing IMP-1, efflux− (MB9799) MITC95 [5] |
| --- | --- | --- | --- | --- | --- | --- | --- | --- | --- |
| NC1CCC(c2ccc(S(=O)(=O)C3CCNCC3)c(S(N)(=O)=O)c2-c2nnn[nH]2)CC1 (stereo not drawn) [Example 206, 3-(4-aminocyclohexyl)-6-(piperidin-4-ylsulfonyl)-2-(1H-tetrazol-5-yl) benzenesulfonamide] | 23.5 nM | 20.3 nM | 0.857 nM | 6.25 µM | 3.125 µM | 3.125 µM | 3.125 µM | 2.00 | 1.563 µM |
| NS(=O)(=O)c1c(S(=O)(=O)C2CCNCC2)ccc([C@H]2CC[C@H](N)CC2)c1-c1nnn[nH]1 [Example 207, 3-((1r,4r)-4-aminocyclohexyl)-6-(piperidin-4-ylsulfonyl)-2-(1H-tetrazol-5-yl) benzenesulfonamide] | 24.6 nM | 15.9 nM | 0.71 nM | 2.344 µM | 3.125 µM | 3.125 µM | 3.125 µM | 2.00 | 1.563 µM |
| NS(=O)(=O)c1c(S(=O)(=O)C2CCNCC2)ccc([C@H]2CC[C@@H](N)CC2)c1-c1nnn[nH]1 [Example 208, 3-((1s,4s)-4-aminocyclohexyl)-6-(piperidin-4-ylsulfonyl)-2-(1H-tetrazol-5-yl) benzenesulfonamide] | 124 nM | 20.6 nM | 18.6 nM | 1.563 µM | 6.25 µM | 3.125 µM | 6.25 µM | 2.00 | 3.125 µM |
| CS(=O)(=O)c1ccc([C@H]2CC[C@@H](N)CC2)c(-c2nnn[nH]2)c1S(N)(=O)=O [Example 209, 3-((1s,4s)-4-aminocyclohexyl)-6-(methylsulfonyl)-2-(1H-tetrazol-5-yl) benzenesulfonamide] | 65.3 nM | 16.4 nM | 52.1 nM | 3.125 µM | 25 µM | 6.25 µM | 50 µM | 16.00 | 3.125 µM |
| CS(=O)(=O)c1ccc([C@H]2CC[C@H](N)CC2)c(-c2nnn[nH]2)c1S(N)(=O)=O [Example 210, 3-((1r,4r)-4-aminocyclohexyl)-6-(methylsulfonyl)-2-(1H-tetrazol-5-yl) benzenesulfonamide] | 7.76 nM | 32.2 nM | 0.566 nM | 3.125 µM | 3.125 µM | 1.563 µM | 12.5 µM | 16.00 | 0.7813 µM |
| CCCS(=O)(=O)c1ccc(C2=CCC(N)CC2)c(-c2nnn[nH]2)c1S(N)(=O)=O (stereo not drawn) [Example 211, 4′-amino-4-(propylsulfonyl)-2-(1H-tetrazol-5-yl)-2′,3′,4′,5′-tetrahydro-[1,1′-biphenyl]-3-sulfonamide] | 6.32 nM | 24.3 nM | 0.785 nM | 12.5 µM | 25 µM | 6.25 µM | 50 µM | 31.99 | 1.563 µM |
| NS(=O)(=O)c1c(S(=O)(=O)C2CNC2)ccc([C@H]2CC[C@H](N)CC2)c1-c1nnn[nH]1 [Example 212, 3-((1r,4r)-4-aminocyclohexyl)-6-(azetidin-3-ylsulfonyl)-2-(1H-tetrazol-5-yl) benzenesulfonamide] | 30.2 nM | 11.3 nM | 0.864 nM | 0.7813 µM | 1.563 µM | 1.563 µM | 1.563 µM | 2.00 | 0.7813 µM |
| NS(=O)(=O)c1c(S(=O)(=O)C2CNC2)ccc([C@H]2CC[C@@H](N)CC2)c1-c1nnn[nH]1 [Example 213, 3-((1s,4s)-4-aminocyclohexyl)-6-(azetidin-3-ylsulfonyl)-2-(1H-tetrazol-5-yl) benzenesulfonamide] | 68.3 nM | 12.9 nM | 7.04 nM | 1.563 µM | 3.125 µM | 1.563 µM | 6.25 µM | 4.00 | 1.563 µM |
| Nc1nc2cccc(-c3ccc(S(=O)(=O)C4CNC4)c(S(N)(=O)=O)c3-c3nn[nH]n3)n2n1 [Example 214, 3-(2-amino-[1,2,4]triazolo[1,5-a]pyridin-5-yl)-6-(azetidin-3-ylsulfonyl)-2-(2H-tetrazol-5-yl)benzenesulfonamide] | 3.32 nM | 0.139 nM | 0.221 nM | 3.125 µM | 6.25 µM | 3.125 µM | 3.125 µM | 2.00 | 1.563 µM |
| Nc1nc2ccc(-c3ccc(S(=O)(=O)C4CNC4)c(S(N)(=O)=O)c3-c3nn[nH]n3)cn2n1 [Example 215, 3-(2-amino-[1,2,4]triazolo[1,5-a]pyridin-6-yl)-6-(azetidin-3-ylsulfonyl)-2-(2H-tetrazol-5-yl)benzenesulfonamide] | 2.19 nM | 0.239 nM | 0.298 nM | 3.125 µM | 6.25 µM | 3.125 µM | 6.25 µM | 2.00 | 3.125 µM |
| Nc1nc2c(-c3ccc(S(=O)(=O)C4CNC4)c(S(N)(=O)=O)c3-c3nn[nH]n3)cccn2n1 [Example 216, 3-(2-amino-[,2,4]triazolo[1,5-a]pyridin-8-yl)-6-(azetidin-3-ylsulfonyl)-2-(2H-tetrazol-5-yl)benzenesulfonamide] | 1.66 nM | 0.102 nM | 0.151 nM | 12.5 µM | 6.25 µM | 3.125 µM | 6.25 µM | 4.00 | 1.563 µM |
